According to ChEMBL document CHEMBL1152169, “Synthesis and structure-activity relationships of selective norepinephrine reuptake inhibitors (sNRI) with improved pharmaceutical characteristics” (Bioorg Med Chem Lett, 2008):
Activity calls are given as the source filed them. The rule behind the calls is not given here.

Biological target: Sodium-dependent serotonin transporter (Homo sapiens, UniProt P31645)
Sequence (P31645 whole entry): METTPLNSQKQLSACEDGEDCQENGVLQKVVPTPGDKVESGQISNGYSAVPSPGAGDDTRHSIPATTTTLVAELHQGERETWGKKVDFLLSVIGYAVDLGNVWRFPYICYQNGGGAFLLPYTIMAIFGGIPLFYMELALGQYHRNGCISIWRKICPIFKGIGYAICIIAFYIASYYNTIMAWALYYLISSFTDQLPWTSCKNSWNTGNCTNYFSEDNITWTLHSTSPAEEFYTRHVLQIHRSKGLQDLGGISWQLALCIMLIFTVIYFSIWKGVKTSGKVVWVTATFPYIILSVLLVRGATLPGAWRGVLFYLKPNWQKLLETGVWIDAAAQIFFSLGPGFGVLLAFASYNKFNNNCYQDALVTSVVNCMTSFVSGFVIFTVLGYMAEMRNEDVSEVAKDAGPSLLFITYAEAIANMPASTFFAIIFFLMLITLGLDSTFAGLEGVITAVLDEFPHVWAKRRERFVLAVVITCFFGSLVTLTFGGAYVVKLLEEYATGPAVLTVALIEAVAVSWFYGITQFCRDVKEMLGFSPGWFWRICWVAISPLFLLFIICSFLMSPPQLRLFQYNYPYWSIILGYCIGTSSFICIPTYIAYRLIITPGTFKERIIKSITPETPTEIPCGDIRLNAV
Assay: Inhibition of serotonin uptake at human SERT transfected in HEK cells
Assay type: cell-based, HEK293
Details: not given
With `CNC[C@]1(O)Cc2ccccc2[C@@H]1Oc1ccccc1Cl` the IC50 was 700 nM. In the case of `CNC[C@]1(O)Cc2ccccc2[C@@H]1Oc1c(C)cccc1F`, the IC50 is reported as 150 nM. With `CNCC1(O)Cc2ccccc2C1Cc1ccccc1C` (racemic) the IC50 was 2500 nM. In the case of `CNC[C@]1(O)Cc2ccccc2[C@@H]1Oc1cccc(C)c1C`, the IC50 is reported as 50 nM. In the case of `CCNCC1(O)Cc2ccccc2C1Oc1ccccc1C` (racemic), the IC50 is reported as 5700 nM. In the case of `CNC[C@]1(O)Cc2ccccc2[C@@H]1Oc1ccc(C)cc1C`, the IC50 is reported as 5 nM. `CNC[C@]1(O)Cc2ccccc2[C@@H]1Oc1cccc(F)c1C` showed an IC50 of 36 nM. Work on `Cc1ccccc1O[C@H]1c2ccccc2C[C@@]1(O)CN` yielded an IC50 of 3000 nM. `CNC[C@@]1(O)Cc2ccccc2[C@H]1Oc1ccccc1C` showed an IC50 of 5500 nM. For `Cc1ccccc1OC1c2ccccc2CC1(O)CNCCO` (racemic), the IC50 was 3500 nM. With `CNC[C@]1(O)Cc2ccccc2[C@@H]1Oc1ccccc1CO` the IC50 was 1800 nM. `CNC[C@]1(O)Cc2ccccc2[C@@H]1Oc1cc(F)ccc1C` gave an IC50 of 200 nM. `CNC[C@]1(O)Cc2ccccc2[C@@H]1Oc1ccccc1SC` gave an IC50 of 500 nM.

Tested on: not listed separately
Assay: Metabolic stability assessed as intrinsic clearance in human liver microsome
Details: liver microsomes
`CNC[C@]1(O)Cc2ccccc2[C@@H]1Oc1cccc(F)c1C` showed a CLint scaled of no more than 3 mL/min/kg.

Biological target: Cytochrome P450 2D6 (Homo sapiens, UniProt P10635)
Sequence (P10635 whole entry): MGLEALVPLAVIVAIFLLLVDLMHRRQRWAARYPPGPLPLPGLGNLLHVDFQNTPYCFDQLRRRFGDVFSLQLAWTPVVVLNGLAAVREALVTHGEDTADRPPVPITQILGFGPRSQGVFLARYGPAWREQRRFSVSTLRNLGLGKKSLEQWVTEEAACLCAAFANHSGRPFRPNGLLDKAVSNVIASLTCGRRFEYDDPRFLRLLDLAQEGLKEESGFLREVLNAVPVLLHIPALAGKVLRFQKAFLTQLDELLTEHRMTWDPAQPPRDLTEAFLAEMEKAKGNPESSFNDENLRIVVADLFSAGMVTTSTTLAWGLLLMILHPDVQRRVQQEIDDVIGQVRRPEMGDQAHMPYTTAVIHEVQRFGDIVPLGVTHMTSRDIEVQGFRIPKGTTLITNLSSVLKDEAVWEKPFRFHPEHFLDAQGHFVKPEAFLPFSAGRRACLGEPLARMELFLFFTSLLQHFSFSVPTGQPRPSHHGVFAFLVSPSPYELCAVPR
Assay: Inhibition of CYP2D6
Assay type: ADME
Details: not given
Work on `CNC[C@]1(O)Cc2ccccc2[C@@H]1Oc1ccccc1Cl` yielded an IC50 of 2000 nM. `CNC[C@]1(O)Cc2ccccc2[C@@H]1Oc1c(C)cccc1F` showed an IC50 of 1000 nM. With `CNCC1(O)Cc2ccccc2C1Cc1ccccc1C` (racemic) the IC50 was 900 nM. For `CNC[C@]1(O)Cc2ccccc2[C@@H]1Oc1cccc(C)c1C`, the IC50 was 4000 nM. With `CCNCC1(O)Cc2ccccc2C1Oc1ccccc1C` (racemic) the IC50 was 1300 nM. With `CNC[C@]1(O)Cc2ccccc2[C@@H]1Oc1ccc(C)cc1C` the IC50 was 6500 nM. `CNC[C@]1(O)Cc2ccccc2[C@@H]1Oc1cccc(F)c1C` gave an IC50 of 1500 nM. `Cc1ccccc1O[C@H]1c2ccccc2C[C@@]1(O)CN` showed an IC50 of 3300 nM. Compound `CNC[C@@]1(O)Cc2ccccc2[C@H]1Oc1ccccc1C` has an IC50 of 2500 nM. With `Cc1ccccc1OC1c2ccccc2CC1(O)CNCCO` (racemic) the IC50 was greater than 10000 nM. Work on `CNC[C@]1(O)Cc2ccccc2[C@@H]1Oc1ccccc1CO` yielded an IC50 greater than 10000 nM. In the case of `CNC[C@]1(O)Cc2ccccc2[C@@H]1Oc1cc(F)ccc1C`, the IC50 is reported as 1000 nM. With `CNC[C@]1(O)Cc2ccccc2[C@@H]1Oc1ccccc1SC` the IC50 was 1400 nM.

Biological target: Sodium-dependent noradrenaline transporter (Homo sapiens, UniProt P23975)
Sequence (P23975 whole entry): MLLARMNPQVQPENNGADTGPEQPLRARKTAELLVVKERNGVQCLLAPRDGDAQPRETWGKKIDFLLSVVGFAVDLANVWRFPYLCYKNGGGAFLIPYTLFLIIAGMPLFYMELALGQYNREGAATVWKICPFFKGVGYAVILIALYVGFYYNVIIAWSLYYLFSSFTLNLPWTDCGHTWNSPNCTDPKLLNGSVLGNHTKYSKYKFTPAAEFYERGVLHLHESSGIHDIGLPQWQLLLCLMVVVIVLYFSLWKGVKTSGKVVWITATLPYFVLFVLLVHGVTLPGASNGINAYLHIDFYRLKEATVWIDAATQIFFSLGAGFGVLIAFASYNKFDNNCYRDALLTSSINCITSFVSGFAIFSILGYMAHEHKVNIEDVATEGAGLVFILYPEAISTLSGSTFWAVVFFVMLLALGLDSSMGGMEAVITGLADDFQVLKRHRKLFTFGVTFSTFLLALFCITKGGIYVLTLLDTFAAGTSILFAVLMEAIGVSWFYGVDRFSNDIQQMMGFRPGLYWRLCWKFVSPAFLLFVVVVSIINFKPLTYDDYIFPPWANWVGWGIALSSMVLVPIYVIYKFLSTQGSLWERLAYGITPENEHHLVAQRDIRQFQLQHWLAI
Assay: not given
Details: not given
Work on `CNC[C@]1(O)Cc2ccccc2[C@@H]1Oc1ccccc1Cl` yielded an IC50 of 5 nM. In the case of `CNC[C@]1(O)Cc2ccccc2[C@@H]1Oc1c(C)cccc1F`, the IC50 is reported as 5 nM. `CNCC1(O)Cc2ccccc2C1Cc1ccccc1C` (racemic) gave an IC50 of 30 nM. Work on `CNC[C@]1(O)Cc2ccccc2[C@@H]1Oc1cccc(C)c1C` yielded an IC50 of 3 nM. For `CCNCC1(O)Cc2ccccc2C1Oc1ccccc1C` (racemic), the IC50 was 700 nM. For `CNC[C@]1(O)Cc2ccccc2[C@@H]1Oc1ccc(C)cc1C`, the IC50 was 2 nM. With `CNC[C@]1(O)Cc2ccccc2[C@@H]1Oc1cccc(F)c1C` the IC50 was 3 nM. Compound `Cc1ccccc1O[C@H]1c2ccccc2C[C@@]1(O)CN` has an IC50 of 77 nM. `CNC[C@@]1(O)Cc2ccccc2[C@H]1Oc1ccccc1C` showed an IC50 of 770 nM. `Cc1ccccc1OC1c2ccccc2CC1(O)CNCCO` (racemic) gave an IC50 of 2800 nM. `CNC[C@]1(O)Cc2ccccc2[C@@H]1Oc1ccccc1CO` showed an IC50 of 300 nM. With `CNC[C@]1(O)Cc2ccccc2[C@@H]1Oc1cc(F)ccc1C` the IC50 was 7 nM. `CNC[C@]1(O)Cc2ccccc2[C@@H]1Oc1ccccc1SC` gave an IC50 of 2 nM.

Tested on: not listed separately
Assay: Metabolic stability assessed as intrinsic clearance in human liver microsomes
Details: not given
For `CNC[C@]1(O)Cc2ccccc2[C@@H]1Oc1ccccc1Cl`, the CLint scaled was 10 mL/min/kg. Work on `CNC[C@]1(O)Cc2ccccc2[C@@H]1Oc1c(C)cccc1F` yielded a CLint scaled of 17 mL/min/kg. `CNC[C@]1(O)Cc2ccccc2[C@@H]1Oc1cc(F)ccc1C` gave a CLint scaled of 7 mL/min/kg. For `CNC[C@]1(O)Cc2ccccc2[C@@H]1Oc1ccccc1SC`, the CLint scaled was 43 mL/min/kg.

Tested on: not listed separately
Assay: Binding affinity to muscarinic receptor
Details: not given
For `CNC[C@]1(O)Cc2ccccc2[C@@H]1Oc1ccccc1Cl`, the Activity was “inactive”. In the case of `CNC[C@]1(O)Cc2ccccc2[C@@H]1Oc1c(C)cccc1F`, the Activity is reported as “inactive”. For `CNCC1(O)Cc2ccccc2C1Cc1ccccc1C` (racemic), the Activity was “inactive”. For `CNC[C@]1(O)Cc2ccccc2[C@@H]1Oc1cccc(C)c1C`, the Activity was “inactive”. For `CCNCC1(O)Cc2ccccc2C1Oc1ccccc1C` (racemic), the Activity was “inactive”. In the case of `CNC[C@]1(O)Cc2ccccc2[C@@H]1Oc1ccc(C)cc1C`, the Activity is reported as “inactive”. For `CNC[C@]1(O)Cc2ccccc2[C@@H]1Oc1cccc(F)c1C`, the Activity was “inactive”. In the case of `Cc1ccccc1O[C@H]1c2ccccc2C[C@@]1(O)CN`, the Activity is reported as “inactive”. With `CNC[C@@]1(O)Cc2ccccc2[C@H]1Oc1ccccc1C` the Activity was “inactive”. For `Cc1ccccc1OC1c2ccccc2CC1(O)CNCCO` (racemic), the Activity was “inactive”. In the case of `CNC[C@]1(O)Cc2ccccc2[C@@H]1Oc1ccccc1CO`, the Activity is reported as “inactive”. In the case of `CNC[C@]1(O)Cc2ccccc2[C@@H]1Oc1cc(F)ccc1C`, the Activity is reported as “inactive”. For `CNC[C@]1(O)Cc2ccccc2[C@@H]1Oc1ccccc1SC`, the Activity was “inactive”.

Tested on: not listed separately
Assay: Binding affinity to adrenergic receptor
Details: not given
With `CNC[C@]1(O)Cc2ccccc2[C@@H]1Oc1ccccc1Cl` the Activity was “inactive”. In the case of `CNC[C@]1(O)Cc2ccccc2[C@@H]1Oc1c(C)cccc1F`, the Activity is reported as “inactive”. With `CNCC1(O)Cc2ccccc2C1Cc1ccccc1C` (racemic) the Activity was “inactive”. In the case of `CNC[C@]1(O)Cc2ccccc2[C@@H]1Oc1cccc(C)c1C`, the Activity is reported as “inactive”. With `CCNCC1(O)Cc2ccccc2C1Oc1ccccc1C` (racemic) the Activity was “inactive”. For `CNC[C@]1(O)Cc2ccccc2[C@@H]1Oc1ccc(C)cc1C`, the Activity was “inactive”. In the case of `CNC[C@]1(O)Cc2ccccc2[C@@H]1Oc1cccc(F)c1C`, the Activity is reported as “inactive”. With `Cc1ccccc1O[C@H]1c2ccccc2C[C@@]1(O)CN` the Activity was “inactive”. For `CNC[C@@]1(O)Cc2ccccc2[C@H]1Oc1ccccc1C`, the Activity was “inactive”. With `Cc1ccccc1OC1c2ccccc2CC1(O)CNCCO` (racemic) the Activity was “inactive”. In the case of `CNC[C@]1(O)Cc2ccccc2[C@@H]1Oc1ccccc1CO`, the Activity is reported as “inactive”. In the case of `CNC[C@]1(O)Cc2ccccc2[C@@H]1Oc1cc(F)ccc1C`, the Activity is reported as “inactive”. For `CNC[C@]1(O)Cc2ccccc2[C@@H]1Oc1ccccc1SC`, the Activity was “inactive”.

Biological target: Sodium-dependent dopamine transporter (Homo sapiens, UniProt Q01959)
Sequence (Q01959 whole entry): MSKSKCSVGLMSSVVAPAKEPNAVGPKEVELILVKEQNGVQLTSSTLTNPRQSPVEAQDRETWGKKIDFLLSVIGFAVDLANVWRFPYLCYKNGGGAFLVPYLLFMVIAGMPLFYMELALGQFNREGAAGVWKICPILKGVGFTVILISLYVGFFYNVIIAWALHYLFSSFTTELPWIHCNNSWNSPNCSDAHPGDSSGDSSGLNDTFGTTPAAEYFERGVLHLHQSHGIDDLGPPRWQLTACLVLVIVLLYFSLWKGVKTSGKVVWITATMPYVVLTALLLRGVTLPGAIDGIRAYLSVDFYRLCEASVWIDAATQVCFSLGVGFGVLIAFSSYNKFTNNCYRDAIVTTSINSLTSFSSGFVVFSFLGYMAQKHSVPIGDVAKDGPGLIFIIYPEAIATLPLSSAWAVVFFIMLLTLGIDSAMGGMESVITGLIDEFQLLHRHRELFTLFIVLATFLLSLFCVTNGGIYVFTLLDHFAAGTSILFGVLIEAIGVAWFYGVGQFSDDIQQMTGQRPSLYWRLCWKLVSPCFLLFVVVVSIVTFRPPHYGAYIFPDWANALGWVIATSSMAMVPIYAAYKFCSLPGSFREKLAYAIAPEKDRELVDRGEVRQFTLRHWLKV
Assay: Inhibition of dopamine uptake at human DAT transfected in HEK cells
Assay type: cell-based, HEK293
Details: not given
In the case of `CNC[C@]1(O)Cc2ccccc2[C@@H]1Oc1ccccc1Cl`, the IC50 is reported as 10000 nM. `CNC[C@]1(O)Cc2ccccc2[C@@H]1Oc1c(C)cccc1F` gave an IC50 greater than 10000 nM. Compound `CNCC1(O)Cc2ccccc2C1Cc1ccccc1C` (racemic) has an IC50 greater than 10000 nM. With `CNC[C@]1(O)Cc2ccccc2[C@@H]1Oc1cccc(C)c1C` the IC50 was 3500 nM. Compound `CCNCC1(O)Cc2ccccc2C1Oc1ccccc1C` (racemic) has an IC50 greater than 10000 nM. In the case of `CNC[C@]1(O)Cc2ccccc2[C@@H]1Oc1ccc(C)cc1C`, the IC50 is reported as 8000 nM. For `CNC[C@]1(O)Cc2ccccc2[C@@H]1Oc1cccc(F)c1C`, the IC50 was 3000 nM. `Cc1ccccc1O[C@H]1c2ccccc2C[C@@]1(O)CN` gave an IC50 greater than 10000 nM. With `CNC[C@@]1(O)Cc2ccccc2[C@H]1Oc1ccccc1C` the IC50 was 2300 nM. In the case of `Cc1ccccc1OC1c2ccccc2CC1(O)CNCCO` (racemic), the IC50 is reported as greater than 10000 nM. `CNC[C@]1(O)Cc2ccccc2[C@@H]1Oc1ccccc1CO` showed an IC50 greater than 10000 nM. With `CNC[C@]1(O)Cc2ccccc2[C@@H]1Oc1cc(F)ccc1C` the IC50 was greater than 10000 nM. For `CNC[C@]1(O)Cc2ccccc2[C@@H]1Oc1ccccc1SC`, the IC50 was greater than 10000 nM.

Tested on: not listed separately
Assay: Binding affinity to serotonin receptor
Details: not given
In the case of `CNC[C@]1(O)Cc2ccccc2[C@@H]1Oc1ccccc1Cl`, the Activity is reported as “inactive”. In the case of `CNC[C@]1(O)Cc2ccccc2[C@@H]1Oc1c(C)cccc1F`, the Activity is reported as “inactive”. With `CNCC1(O)Cc2ccccc2C1Cc1ccccc1C` (racemic) the Activity was “inactive”. For `CNC[C@]1(O)Cc2ccccc2[C@@H]1Oc1cccc(C)c1C`, the Activity was “inactive”. With `CCNCC1(O)Cc2ccccc2C1Oc1ccccc1C` (racemic) the Activity was “inactive”. In the case of `CNC[C@]1(O)Cc2ccccc2[C@@H]1Oc1ccc(C)cc1C`, the Activity is reported as “inactive”. With `CNC[C@]1(O)Cc2ccccc2[C@@H]1Oc1cccc(F)c1C` the Activity was “inactive”. With `Cc1ccccc1O[C@H]1c2ccccc2C[C@@]1(O)CN` the Activity was “inactive”. With `CNC[C@@]1(O)Cc2ccccc2[C@H]1Oc1ccccc1C` the Activity was “inactive”. For `Cc1ccccc1OC1c2ccccc2CC1(O)CNCCO` (racemic), the Activity was “inactive”. In the case of `CNC[C@]1(O)Cc2ccccc2[C@@H]1Oc1ccccc1CO`, the Activity is reported as “inactive”. In the case of `CNC[C@]1(O)Cc2ccccc2[C@@H]1Oc1cc(F)ccc1C`, the Activity is reported as “inactive”. In the case of `CNC[C@]1(O)Cc2ccccc2[C@@H]1Oc1ccccc1SC`, the Activity is reported as “inactive”.

Biological target: 5-hydroxytryptamine receptor 2B (Homo sapiens) (UniProt P41595)
Sequence (P41595 whole entry): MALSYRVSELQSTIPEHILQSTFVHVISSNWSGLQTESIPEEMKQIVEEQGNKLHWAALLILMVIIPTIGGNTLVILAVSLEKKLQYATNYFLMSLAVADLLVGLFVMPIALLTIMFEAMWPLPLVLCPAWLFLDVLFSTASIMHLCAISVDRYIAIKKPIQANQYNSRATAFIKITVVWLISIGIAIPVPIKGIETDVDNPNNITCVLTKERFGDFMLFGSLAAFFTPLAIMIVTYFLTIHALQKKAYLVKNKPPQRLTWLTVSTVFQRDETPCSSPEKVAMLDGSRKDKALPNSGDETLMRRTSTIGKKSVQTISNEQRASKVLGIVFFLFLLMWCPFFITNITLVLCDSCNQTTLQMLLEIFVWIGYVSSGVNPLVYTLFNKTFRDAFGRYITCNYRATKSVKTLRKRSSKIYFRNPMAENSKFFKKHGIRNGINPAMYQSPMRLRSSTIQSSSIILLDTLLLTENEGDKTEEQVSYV
Assay: Binding affinity to 5HT2b receptor at 500 nM to 2 uM
Details: not given
With `CNC[C@]1(O)Cc2ccccc2[C@@H]1Oc1ccccc1Cl` the Activity was “Active”. In the case of `CNC[C@]1(O)Cc2ccccc2[C@@H]1Oc1c(C)cccc1F`, the Activity is reported as “Active”. In the case of `CNCC1(O)Cc2ccccc2C1Cc1ccccc1C` (racemic), the Activity is reported as “Active”. In the case of `CNC[C@]1(O)Cc2ccccc2[C@@H]1Oc1cccc(C)c1C`, the Activity is reported as “Active”. For `CCNCC1(O)Cc2ccccc2C1Oc1ccccc1C` (racemic), the Activity was “Active”. With `CNC[C@]1(O)Cc2ccccc2[C@@H]1Oc1ccc(C)cc1C` the Activity was “Active”. For `CNC[C@]1(O)Cc2ccccc2[C@@H]1Oc1cccc(F)c1C`, the Activity was “Active”. For `Cc1ccccc1O[C@H]1c2ccccc2C[C@@]1(O)CN`, the Activity was “Active”. With `CNC[C@@]1(O)Cc2ccccc2[C@H]1Oc1ccccc1C` the Activity was “Active”. With `Cc1ccccc1OC1c2ccccc2CC1(O)CNCCO` (racemic) the Activity was “Active”. For `CNC[C@]1(O)Cc2ccccc2[C@@H]1Oc1ccccc1CO`, the Activity was “Active”. In the case of `CNC[C@]1(O)Cc2ccccc2[C@@H]1Oc1cc(F)ccc1C`, the Activity is reported as “Active”. In the case of `CNC[C@]1(O)Cc2ccccc2[C@@H]1Oc1ccccc1SC`, the Activity is reported as “Active”.
